Literature values as cited in paper PMC5548701, “Selective targeting of melanoma using N-(2-diethylaminoethyl) 4-[^18F]fluoroethoxy benzamide (4-[^18F]FEBZA): a novel PET imaging probe” (EJNMMI Research, 2017).

Experiments:
[1] = set-up: method as in PMID 27693672; conditions: 60–70 min; cited from earlier work
[2] = test system: B16F1 tumor; conditions: cited from earlier work; for intestinal uptake: mice bearing B16F melanoma tumor; for bone uptake: 2 h

SMILES | uptake in mouse brain from microPET imaging [1] [%IA/g] | intestinal uptake ([2]; 1 h) [%IA/g] | F-18 uptake in B16F1 tumor ([2]; 1 h) [%IA/g] | bone uptake [2] [%IA/g]
CCN(CC)CCNC(=O)c1ccc(F)nc1 [MEL050] | 1.38 ± 0.40 | 2.1 ± 0.3 | 8.4 ± 1.5 | 0.58 ± 0.05
CCN(CC)CCNC(=O)c1ccc([18F])cc1 [^18F-DAFBA, N-(2-diethylaminoethyl)-4-[18F]fluorobenzamide] | – | 3.04 ± 0.24 | – | 0.20 ± 0.06
